Reference: patent US7291649B2, “Forming germicidal aromatic dialdehydes with acetals” (Ethicon, Inc., priority 2005, dated 2007)
Each block holds one compound with its values, some of them ahead of it.

Columns and labels:
[1] = Hydrolysis of 1,3-diethoxyphthalan in the presence of OPA in distilled water at various pH, monitored by GC/MS; type: physicochemical
Method: The hydrolysis of 1,3-diethoxyphthalan in the presence of OPA in distilled water at various pH was evaluated at room temperature. 1,3-Diethoxyphthalan was added to the OPA solution in distilled water, followed by pH measurement and adjustment with either HCl or NaOH, depending on the pH. The mixtures were stirred at room temperature and monitored by GC/MS at various time intervals.

[2] = Hydrolysis of OPA acetals to OPA in distilled water at various pH, monitored by GC/MS; type: physicochemical; conditions: room temperature
Method: The reactions of 1,3-dimethoxyphthalan, 1,3-diethoxyphthalan, a PEG 200 pegylated OPA acetal at various pH in distilled water were evaluated at room temperature. The acetals were suspended in distilled water, followed by pH measurement, and pH adjustment with either hydrogen chloride (HCl), phthalic acid, or sodium hydroxide (NaOH), depending on the particular pH. The mixture was stirred at room temperature and monitored by gas chromatograph/mass spectroscopy (GC/MS) at various time intervals.
The hydrolysis rate depends upon pH. Over the range of pH investigated, the lower the pH, the faster the hydrolysis rate.

[3] = Hydrolysis of the tetramethyl acetal of IPA to IPA in water, gas chromatography; type: physicochemical; conditions: pH 4.34 (HCl)
Method: The process takes place in two staged reactions. In one experiment, the tetramethyl acetal of IPA (0.114 g, 0.504 mmol) was suspended in 100 mL of water including 67 mg of OPA as the internal standard. A relatively large volume of water was used due to the low solubility of IPA. The pH of the water was adjusted to 4.34 with 1% HCl. At various time intervals 0.5 mL of the reaction mixture was sampled and extracted with 1 mL of ethyl acetate (EtOAc). The samples were analyzed with gas chromatography.
The diacetal starting material disappeared within 8 h, but hydrolysis of the second acetal group of the monoacetal took longer period of time.

[4] = Solubility in 30% polyethylene glycol plus water solution; type: physicochemical
[5] = cited from earlier work
[6] = pH = 6.95, NaOH adjusted, 120 h
[7] = pH = 6.95, NaOH adjusted, 168 h
[8] = pH = 6.95, NaOH adjusted, 240 h
[9] = pH = 6.95, NaOH adjusted, 312 h
[10] = pH = 6.95, NaOH adjusted, 480 h
[11] = pH = 6.95, NaOH adjusted, 552 h
[12] = pH = 8.9, NaOH adjusted, 1200 h

Acetal % ([1]; pH = 6.95, NaOH adjusted, 0 h): 21.8% | OPA % ([1]; pH = 6.95, NaOH adjusted, 0 h): 78.2% | OPA (w %) ([1]; pH = 6.95, NaOH adjusted, 0 h): 0.498 w % | Acetal % ([1]; pH = 6.95, NaOH adjusted, 48 h): 18.1% | OPA % ([1]; pH = 6.95, NaOH adjusted, 48 h): 81.9% | OPA (w %) ([1]; pH = 6.95, NaOH adjusted, 48 h): 0.509 w % | Acetal % [1, 6]: 12.1% | OPA % [1, 6]: 87.9% | OPA (w %) [1, 6]: 0.527 w % | Acetal % [1, 7]: 9.4% | OPA % [1, 7]: 90.6% | OPA (w %) [1, 7]: 0.535 w % | Acetal % [1, 8]: 6.4% | OPA % [1, 8]: 93.6% | OPA (w %) [1, 8]: 0.543 w % | Acetal % [1, 9]: 4.2% | OPA % [1, 9]: 95.8% | OPA (w %) [1, 9]: 0.550 w % | Acetal % [1, 10]: 1.2% | OPA % [1, 10]: 98.8% | OPA (w %) [1, 10]: 0.559 w % | Acetal % [1, 11]: 0.7% | OPA % [1, 11]: 99.3% | OPA (w %) [1, 11]: 0.560 w % | Acetal % ([1]; pH = 8.0, NaOH adjusted, 0 h): 20.9% | OPA % ([1]; pH = 8.0, NaOH adjusted, 0 h): 79.1% | OPA (w %) ([1]; pH = 8.0, NaOH adjusted, 0 h): 0.498 w % | Acetal % ([1]; pH = 8.0, NaOH adjusted, 48 h): 21.6% | OPA % ([1]; pH = 8.0, NaOH adjusted, 48 h): 78.4% | OPA (w %) ([1]; pH = 8.0, NaOH adjusted, 48 h): 0.496 w % | Acetal % ([1]; pH = 8.0, NaOH adjusted, 144 h): 18.6% | OPA % ([1]; pH = 8.0, NaOH adjusted, 144 h): 81.4% | OPA (w %) ([1]; pH = 8.0, NaOH adjusted, 144 h): 0.505 w % | Acetal % ([1]; pH = 8.0, NaOH adjusted, 240 h): 17% | OPA % ([1]; pH = 8.0, NaOH adjusted, 240 h): 83.0% | OPA (w %) ([1]; pH = 8.0, NaOH adjusted, 240 h): 0.510 w % | Acetal % ([1]; pH = 8.0, NaOH adjusted, 312 h): 15.2% | OPA % ([1]; pH = 8.0, NaOH adjusted, 312 h): 84.8% | OPA (w %) ([1]; pH = 8.0, NaOH adjusted, 312 h): 0.515 w % | Acetal % ([1]; pH = 8.0, NaOH adjusted, 480 h): 10.4% | OPA % ([1]; pH = 8.0, NaOH adjusted, 480 h): 89.6% | OPA (w %) ([1]; pH = 8.0, NaOH adjusted, 480 h): 0.530 w % | Acetal % ([1]; pH = 8.0, NaOH adjusted, 576 h): 8.1% | OPA % ([1]; pH = 8.0, NaOH adjusted, 576 h): 91.9% | OPA (w %) ([1]; pH = 8.0, NaOH adjusted, 576 h): 0.537 w % | Acetal % ([1]; pH = 8.0, NaOH adjusted, 720 h): 3.4% | OPA % ([1]; pH = 8.0, NaOH adjusted, 720 h): 96.6% | OPA (w %) ([1]; pH = 8.0, NaOH adjusted, 720 h): 0.551 w % | Acetal % ([1]; pH = 8.0, NaOH adjusted, 840 h): 2% | OPA % ([1]; pH = 8.0, NaOH adjusted, 840 h): 98.0% | OPA (w %) ([1]; pH = 8.0, NaOH adjusted, 840 h): 0.555 w % | Acetal % ([1]; pH = 8.0, NaOH adjusted, 960 h): 1% | OPA % ([1]; pH = 8.0, NaOH adjusted, 960 h): 99.0% | OPA (w %) ([1]; pH = 8.0, NaOH adjusted, 960 h): 0.558 w % | Acetal % ([1]; pH = 8.9, NaOH adjusted, 0 h): 21.8% | OPA % ([1]; pH = 8.9, NaOH adjusted, 0 h): 78.2% | OPA (w %) ([1]; pH = 8.9, NaOH adjusted, 0 h): 0.498 w % | Acetal % ([1]; pH = 8.9, NaOH adjusted, 96 h): 21.4% | OPA % ([1]; pH = 8.9, NaOH adjusted, 96 h): 78.6% | OPA (w %) ([1]; pH = 8.9, NaOH adjusted, 96 h): 0.498 w % | Acetal % ([1]; pH = 8.9, NaOH adjusted, 240 h): 18.8% | OPA % ([1]; pH = 8.9, NaOH adjusted, 240 h): 81.2% | OPA (w %) ([1]; pH = 8.9, NaOH adjusted, 240 h): 0.507 w % | Acetal % ([1]; pH = 8.9, NaOH adjusted, 336 h): 17.2% | OPA % ([1]; pH = 8.9, NaOH adjusted, 336 h): 82.8% | OPA (w %) ([1]; pH = 8.9, NaOH adjusted, 336 h): 0.511 w % | Acetal % ([1]; pH = 8.9, NaOH adjusted, 480 h): 13.8% | OPA % ([1]; pH = 8.9, NaOH adjusted, 480 h): 86.2% | OPA (w %) ([1]; pH = 8.9, NaOH adjusted, 480 h): 0.521 w % | Acetal % ([1]; pH = 8.9, NaOH adjusted, 600 h): 11.0% | OPA % ([1]; pH = 8.9, NaOH adjusted, 600 h): 89.0% | OPA (w %) ([1]; pH = 8.9, NaOH adjusted, 600 h): 0.530 w % | Acetal % ([1]; pH = 8.9, NaOH adjusted, 720 h): 6.7% | OPA % ([1]; pH = 8.9, NaOH adjusted, 720 h): 93.3% | OPA (w %) ([1]; pH = 8.9, NaOH adjusted, 720 h): 0.542 w % | Acetal % ([1]; pH = 8.9, NaOH adjusted, 840 h): 4.6% | OPA % ([1]; pH = 8.9, NaOH adjusted, 840 h): 95.4% | OPA (w %) ([1]; pH = 8.9, NaOH adjusted, 840 h): 0.548 w % | Acetal % ([1]; pH = 8.9, NaOH adjusted, 960 h): 3.0% | OPA % ([1]; pH = 8.9, NaOH adjusted, 960 h): 97.0% | OPA (w %) ([1]; pH = 8.9, NaOH adjusted, 960 h): 0.553 w % | Acetal % [1, 12]: 1.2% | OPA % [1, 12]: 98.8% | OPA (w %) [1, 12]: 0.558 w % | OPA (w/w %) ([2]; pH = 5.4, HCl adjusted, water, 0 h): 0.000 w/w % | OPA (w/w %) ([2]; pH = 5.4, HCl adjusted, water, 2 h): 0.024 w/w % | OPA (w/w %) ([2]; pH = 5.4, HCl adjusted, water, 48 h): 0.056 w/w % | OPA (w/w %) ([2]; pH = 5.4, HCl adjusted, water, 120 h): 0.158 w/w % | OPA (w/w %) ([2]; pH = 5.4, HCl adjusted, water, 240 h): 0.296 w/w % | OPA (w/w %) ([2]; pH = 5.4, HCl adjusted, water, 360 h): 0.525 w/w % | OPA (w/w %) ([2]; pH = 5.4, HCl adjusted, water, 480 h): 0.596 w/w % | OPA (w/w %) ([2]; pH = 6.9, water, 0 h): 0.000 w/w % | OPA (w/w %) ([2]; pH = 6.9, water, 1 h): 0.000 w/w % | OPA (w/w %) ([2]; pH = 6.9, water, 20 h): 0.010 w/w % | OPA (w/w %) ([2]; pH = 6.9, water, 144 h): 0.097 w/w % | OPA (w/w %) ([2]; pH = 6.9, water, 240 h): 0.204 w/w % | OPA (w/w %) ([2]; pH = 6.9, water, 359 h): 0.419 w/w % | OPA (w/w %) ([2]; pH = 6.9, water, 480 h): 0.476 w/w % | OPA (w/w %) ([2]; pH = 10.8, NaOH adjusted, water, 48 h): 0.0048 w/w % | OPA (w/w %) ([2]; pH = 10.8, NaOH adjusted, water, 120 h): 0.0062 w/w % | OPA (w/w %) ([2]; pH = 10.8, NaOH adjusted, water, 480 h): 0.0473 w/w % | OPA (w/w %) ([2]; pH = 10.8, NaOH adjusted, water, 720 h): 0.112 w/w % | OPA (w/w %) ([2]; pH = 10.8, NaOH adjusted, water, 960 h): 0.229 w/w %
Structure (SMILES): CCOC1OC(OCC)c2ccccc21 (centres unmarked) [1,3-diethoxyphthalan]
Dependence of hydrolysis rate on pH ([1]; range of pH investigated): the hydrolysis rate increases with decreasing pH

Mole % in reaction mixture during hydrolysis ([3]; 8 h): 79.7 Mole % | wt % in reaction mixture during hydrolysis ([3]; 8 h): 0.091 wt % | Mole % in reaction mixture during hydrolysis ([3]; 32 h): 33.9 Mole % | wt % in reaction mixture during hydrolysis ([3]; 32 h): 0.039 wt % | Mole % in reaction mixture during hydrolysis ([3]; 54 h): 0 Mole % | wt % in reaction mixture during hydrolysis ([3]; 54 h): 0 wt %
Structure (SMILES): COC(OC)c1cccc(C=O)c1 [Monoacetal]

The remaining lines, values behind:

Structure (SMILES): COC1OC(OC)c2ccccc21 (centres unmarked) [1,3-dimethoxyphthalan]
OPA (w/w %) ([2]; pH = 5.0 (phthalic acid), water, 0 h): 0.000 w/w % | OPA (w/w %) ([2]; pH = 5.0 (phthalic acid), water, 24 h): 0.028 w/w % | OPA (w/w %) ([2]; pH = 5.0 (phthalic acid), water, 120 h): 0.166 w/w % | OPA (w/w %) ([2]; pH = 5.0 (phthalic acid), water, 240 h): 0.301 w/w % | OPA (w/w %) ([2]; pH = 5.0 (phthalic acid), water, 360 h): 0.367 w/w % | OPA (w/w %) ([2]; pH = 5.0 (phthalic acid), water, 480 h): 0.405 w/w % | OPA (w/w %) ([2]; pH = 5.0 (phthalic acid), water, 576 h): 0.417 w/w %

Structure (SMILES): O=Cc1cccc(C=O)c1 [IPA, 1,3-benzenedicarboxaldehyde, reference compound]
Mole % in reaction mixture during hydrolysis ([3]; 8 h): 20.3 Mole % | wt % in reaction mixture during hydrolysis ([3]; 8 h): 0.014 wt % | Mole % in reaction mixture during hydrolysis ([3]; 32 h): 66.1 Mole % | wt % in reaction mixture during hydrolysis ([3]; 32 h): 0.045 wt % | Mole % in reaction mixture during hydrolysis ([3]; 54 h): 100 Mole % | wt % in reaction mixture during hydrolysis ([3]; 54 h): 0.068 wt % | Solubility [4]: less than 0.4%

Structure (SMILES): O=Cc1ccccc1C=O [phthalaldehyde, 1,2-benzenedicarboxaldehyde]
Solubility in water [5]: about 5 % by weight
